Literature values, collected in patent US6200975A, “Substituted 1,2,4-triazolo[3,4-a]phthalazine derivatives as GABA alpha 5 ligands” (Merck Sharp & Dohme Limited, priority 1997, dated 2001).

Conditions: reported by McNamara and Skelton

Question: Which “spatial learning in the Morris watermaze” value does the source give for `COC(=O)c1cc2c(cn1)[nH]c1ccccc12` [β-CCM] here?
Answer: enhanced spatial learning
